Results as given in ChEMBL document CHEMBL1133872, “Modelling studies of the active site of human sorbitol dehydrogenase: an approach to structure-based inhibitor design of the enzyme” (Bioorg Med Chem Lett, 2001).

Target: T1, Sorbitol dehydrogenase (Homo sapiens, UniProt Q00796)
T1 sequence (Q00796 whole entry): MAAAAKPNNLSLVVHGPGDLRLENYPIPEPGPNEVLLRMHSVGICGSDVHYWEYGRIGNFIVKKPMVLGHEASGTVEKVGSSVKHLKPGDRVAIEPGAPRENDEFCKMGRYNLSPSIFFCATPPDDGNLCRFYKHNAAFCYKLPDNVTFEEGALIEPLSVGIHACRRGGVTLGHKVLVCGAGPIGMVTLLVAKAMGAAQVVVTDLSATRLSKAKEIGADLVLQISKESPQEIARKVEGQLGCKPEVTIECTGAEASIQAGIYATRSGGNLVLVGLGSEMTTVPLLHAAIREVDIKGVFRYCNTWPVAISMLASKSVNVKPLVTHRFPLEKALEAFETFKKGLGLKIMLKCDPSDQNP
Test: Concentration required for inhibitory activity against human sorbitol dehydrogenase (SDH)

## CN(C)S(=O)(=O)N1CCN(c2ccnc(CO)n2)CC1
  IC50: 1 µM
